# Experimental data as given in patent publication EP1095657A2, “Compositions for the regulation of cytokine activity” (priority 1992, dated 1994).
# Marks after values point to notes of the source that are not given here.
# Experiments:
# [1] = test system: experimental DTH reaction in mice; test: In vivo bioassay of inhibition of experimental DTH reactivity (oxazolone ear swelling); set-up: species or system mice (BALB/c or CD1); conditions: for "R" value: inhibitory, 0 = no effect; for DTH Response: at the dose giving Inhmax; for Dose: dose giving Inhmax
# Protocol: Groups of inbred BALB/c (Jackson Laboratories, Bar Harbor, ME) or of outbred CD1 (Weizmann Institute Animal Breeding Center, Rehovot, Israel) mice are sensitized on the shaved abdominal skin with 100 µl of 2% oxazolone (OX) in acetone/olive oil (4/1, v/v) applied topically. DTH sensitivity is elicited 5 days later as follows: mice are challenged with 20 µl of 0.5% OX (10 µl administered topically to each side of the ear) in acetone/olive oil. A constant area of the ear is measured immediately before challenge and 24 and 48 h later with a Mitutoyo engineer's micrometer. The individual measuring ear swelling is blinded to the identity of the groups of mice. The increment (△) of ear swelling is expressed as the mean in units of 10^-2 mm or 10^-4 inch (+SE) depending on the micrometer that is used. Percent inhibition is calculated as follows: %Inhibition= 1-((Treated-negative control)/(positive control-negative control)) [formula]
# Mice are treated with LMWH as in Example 5.1, injected the day before primary sensitization to OX. On the fifth day after sensitization to OX, the mice are challenged to induce a DTH reaction, as described above.
# The positive control is the DTH reaction elicited in immunized mice in the absence of treatment with LMWH. The negative control is the background swelling produced by the antigen in naive (non-immunized) mice.
# BALB/c mice (at least 5 mice per group) were sensitized on the shaved abdomen with 3% 4-ethoxymethylene-2-phenyl oxazolone (OX; BDH Chemicals, GB) in acetone/olive oil applied topically. DTH sensitivity was elicited 5 days later as follows. Mice were challenged with 0.5% OX in acetone/olive oil. The ear was measured immediately before challenge and 24 h later with Mitutoyo engineer's micrometer (Japan). The individual measuring the swelling of the ear was blinded to the identity of the groups of mice. To interfere with DTH response, the low molecular weight immuno-regulatory fractions, diluted in PBS, were administrated subcutaneously into the back of the treated mice at the indicated time schedules and concentrations. Treated mice were inspected during and after (>2 months) the treatment and no major side-effects were observed clinically.
# In particular, CD1 mice (available from the Weizmann Institute Animal Breeding Center, Rehovot, Israel), 4-12 mice per group, were treated as described in Section 5.2 or 6.8.
# [2] = test system: adjuvant arthritis in Lewis rats; test: Adjuvant arthritis (AA) in rats; type: in vivo; conditions: s.c. weekly from 1 day before induction; day 24; dose not given
# [3] = test system: LPS-induced inflammation of the cornea; test: LPS-induced inflammation of the rat cornea; type: in vivo, Lewis rats
# Protocol: LPS-induced inflammation of the cornea is TNF dependent, as shown by the work of Vanderhagen, C. and co-workers in the Netherlands, "Kinetics of Intraocular TNF and IL-6 in Endotoxin-Induced Uveitis in the Rat," submitted for publication. Using a 30-gauge needle, LPS (5 ng) was injected into the cornea of Lewis rats. After one day, separate groups of rats, 2 to a group (or 4 eyes to a group), were then injected subcutaneously with phosphate-buffered saline (0.05 ml) or H-1020 (at a dose of either 50 ng/rat or 200 ng/rat). The effects, if any, were scored as follows:
# in which the sum of the points is used as the total score.
# [4] = test system: experimental DTH reaction in mice; test: In vivo bioassay of inhibition of experimental DTH reactivity (oxazolone ear swelling); set-up: species or system mice (BALB/c or CD1); conditions: inhibitory; administered orally
# [5] = test system: ELAM-1; test: TNF-α-induced expression of adhesion molecules by endothelial cells (ELISA); conditions: for Recombinant human TNFα-induced adhesion molecules (O.D 492): 1 h pretreatment of EC, TNFα alone 1.2±0.1
# [6] = test system: ICAM-1; test: as above; conditions: 1 h pretreatment of EC, TNFα alone 2.2±0.2
# [7] = test system: secretion of active TNF-α by activated human CD4+ T cells; test: Bioassay of TNF-α activity using human CD4+ T cells derived from PBLs (human PBL bioassay); conditions: concentration that gave the Inhmax or Augmax of the same line
smiles,measurement,setting,value
"O=C(O)C1=C[C@H](O)[C@@H](O)[C@H](O[C@H]2[C@H](O)[C@@H](NS(=O)(=O)O)C(O)O[C@@H]2COS(=O)(=O)O)O1 (stereo partly drawn) [H-1020, 4-deoxy-4-en-iduronic acid-(α-1,4)-2-deoxy-2-N-sulfate-6-O-sulfateglucosamine]",Inhmax,"[1]; CD1 mice, s.c.",66%
same,DTH,"[1]; CD1 mice, s.c., at that dose, value in parentheses in the cell taken as positive control, not reported",6.7 ± 1.1 (19.6 ± 1.2) 10^-2 mm
same,"""R"" value","[1]; CD1 mice, s.c.",1.65 x 10^5 % x (μg/gm)^-1
same,DTH Response,[1]; administered orally,5.9 ± 0.9 10^-2mm
same,DTH Response,[1]; subcutaneous,4.7 ± 0.7 10^-2mm
same,Dose,[1]; administered orally,0.128^a µg/gm mouse
same,Dose,[1]; subcutaneous,0.0005 µg/gm mouse
same,"""R"" value","[1]; maximum % inhibition of DTH divided by the dose giving it, s.c.","146,000 % x (µg/gm)^-1"
same,Inhmax,"[1]; maximum inhibition of DTH, administered orally",68%
same,Inhmax,"[1]; maximum inhibition of DTH, subcutaneous",73%
same,inhibition of the development of AA relative to control,[2],about 30%
same,"effect on the LPS-induced inflammation score, in words",[3]; 50 ng/rat s.c. one day after LPS,effective to suppress the effects of the local LPS-induced inflammation
same,"effect on the LPS-induced inflammation score, in words",[3]; 200 ng/rat s.c. one day after LPS,failed to provide a significant effect
same,"""R"" value",[4],531 % x (µg/gm)^-1
same,Recombinant human TNFα-induced adhesion molecules (O.D 492),"[5]; 50 pg/ml, no TNFα 0.12±0.01",0.7±0.05 O.D 492
same,Recombinant human TNFα-induced adhesion molecules (O.D 492),[5]; 100 pg/ml,0.9±0.03 O.D 492
same,inhibition of the up regulation of EC expression of adhesion molecules induced by TNF-α,[5]; ELAM-1 and ICAM-1 not told apart in the sentence,up to 50%
same,Recombinant human TNFα-induced adhesion molecules (O.D 492),"[6]; 50 pg/ml, no TNFα 0.18±0.01",1.2±0.1 O.D 492
same,Recombinant human TNFα-induced adhesion molecules (O.D 492),[6]; 100 pg/ml,1.5±0.07 O.D 492
same,conc,[7],1 pg/mL
